Laboratory results taken from patent US11964973B2 (priority 2019, dated 2024).

System: Human venous whole blood (IFN-γ)
Assay: Human whole blood IFN-γ assay
Assay type: cell-based
Settings: Homo sapiens, 24 h, human whole blood, anti-CD3 plus anti-CD28, 24 hours; read-out: INFg Whole Blood Normalized Agonist EC50
Experimental: Assay 10: Human Whole Blood IFN-γ Assay
Human venous whole blood (22.5 μL per well), obtained from healthy donors, was pre-treated with compounds for one hour at 37° C. in a humidified 95% air/5% CO2 incubator. The blood was stimulated with 2.5 μL anti-human CD3 and anti-CD28 mAb at a final concentration of 1 μg/mL each for 24 hours at 37° C. IFN-γ in the supernatants was measured using AlphLISA kit (Cat #AL217).

SMILES	EC50
CC[C@@H]1CN(c2cc(=O)n(C)c3ccc(C#N)nc23)CC[C@H]1Oc1ccc(C(C)(C)CC)cc1 (single isomer, unassigned) [Example 150]	1400 nM
CC[C@@H]1CN(c2cc(=O)n(C)c3ccc(C#N)nc23)CC[C@H]1Oc1ccc(C(C)(C)CC)cc1 (racemic) [Example 149, 8-((3R,4R)-3-ethyl-4-(4-(tert-pentyl)phenoxy)piperidin-1-yl)-5-methyl-6-oxo-5,6-dihydro-1,5-naphthyridine-2-carbonitrile]	1400 nM
C[C@@H]1CN(c2cc(=O)n(C)c3ccc(C#N)nc23)CC[C@H]1Oc1c(F)cccc1C(F)(F)F (racemic) [Example 124, 8-((3R,4R)-4-(2-fluoro-6-(trifluoromethyl)phenoxy)-3-methylpiperidin-1-yl)-5-methyl-6-oxo-5,6-dihydro-1,5-naphthyridine-2-carbonitrile]	20000 nM
CC[C@@H]1CN(c2cc(=O)n(C)c3ccc(C#N)nc23)CC[C@H]1Oc1ccc(C(C)(C)C)cc1 (racemic) [Example 152, 8-((3R,4R)-4-(4-(tert-butyl)phenoxy)-3-ethylpiperidin-1-yl)-5-methyl-6-oxo-5,6-dihydro-1,5-naphthyridine-2-carbonitrile]	1500 nM
C[C@@H]1CN(c2cc(=O)n(C)c3ccc(C#N)nc23)CC[C@H]1Oc1ccc(F)cc1 [Example 128, 8-((3R,4R)-4-(4-fluorophenoxy)-3-methylpiperidin-1-yl)-5-methyl-6-oxo-5,6-dihydro-1,5-naphthyridine-2-carbonitrile]	20000 nM
C[C@@H]1CN(c2cc(=O)n(C)c3ccc(C#N)nc23)CC[C@H]1Oc1ccc(C(C)(C)C)cc1 (single isomer, unassigned) [Example 90]	5600 nM
CC[C@@H]1CN(c2cc(=O)n(C)c3ccc(C#N)nc23)CC[C@H]1Oc1cccc(C2CC2)c1 [Example 156, 8-((3R,4R)-4-(3-cyclopropylphenoxy)-3-ethylpiperidin-1-yl)-5-methyl-6-oxo-5,6-dihydro-1,5-naphthyridine-2-carbonitrile]	1800 nM
C[C@@H]1CN(c2cc(=O)n(C)c3ccc(C#N)nc23)CC[C@H]1Oc1c(F)cccc1F (single isomer, unassigned) [Example 126]	20000 nM
C[C@@H]1CN(c2cc(=O)n(C)c3ccc(C#N)nc23)CC[C@H]1Oc1ccc(C(C)(C)C)cc1 [Example 88, 8-((3R,4R)-4-(4-(tert-butyl)phenoxy)-3-methylpiperidin-1-yl)-5-methyl-6-oxo-5,6-dihydro-1,5-naphthyridine-2-carbonitrile]	880 nM
CC[C@@H]1CN(c2cc(=O)n(C)c3ccc(C#N)nc23)CC[C@H]1Oc1ccc(C(F)(F)F)cc1 (racemic) [Example 146, 8-((3R,4R)-3-ethyl-4-(4-(trifluoromethyl)phenoxy)piperidin-1-yl)-5-methyl-6-oxo-5,6-dihydro-1,5-naphthyridine-2-carbonitrile]	1700 nM
CC[C@@H]1CN(c2cc(=O)n(C)c3ccc(C#N)nc23)CC[C@H]1Oc1cccc(C2CC2)c1 (racemic) [Example 155, 8-((3R,4R)-4-(3-cyclopropylphenoxy)-3-ethylpiperidin-1-yl)-5-methyl-6-oxo-5,6-dihydro-1,5-naphthyridine-2-carbonitrile]	20000 nM
CC[C@@H]1CN(c2cc(=O)n(C)c3ccc(C#N)nc23)CC[C@H]1Oc1ccc(C(C)C)cc1 (racemic) [Example 143, 8-((3R,4R)-3-ethyl-4-(4-isopropylphenoxy)piperidin-1-yl)-5-methyl-6-oxo-5,6-dihydro-1,5-naphthyridine-2-carbonitrile]	2200 nM

Same assay, conditions: Homo sapiens, human whole blood IFN-γ; read-out: INFg Whole Blood

SMILES	EC50
CC(C)Oc1ccc(O[C@@H]2CCN(c3cc(=O)n(C)c4ccc(C#N)nc34)C[C@H]2C)nc1 (mixture of isomers) [Example 199, 8-((3R,4R)-4-((5-isopropoxypyridin-2-yl)oxy)-3-methylpiperidin-1-yl)-5-methyl-6-oxo-5,6-dihydro-1,5-naphthyridine-2-carbonitrile]	2100 nM
CC(C)c1ccc(O[C@H]2CCN(c3cc(=O)n(C)c4ccc(C#N)nc34)C[C@H]2C)nc1 [Example 205, 8-((3R,4S)-4-((5-isopropylpyridin-2-yl)oxy)-3-methylpiperidin-1-yl)-5-methyl-6-oxo-5,6-dihydro-1,5-naphthyridine-2-carbonitrile]	370 nM
C[C@@H]1CN(c2cc(=O)n(C)c3ccc(C#N)nc23)CC[C@@H]1Oc1ccc(C(F)(F)F)cn1 [Example 225, 5-methyl-8-((3R,4S)-3-methyl-4-((5-(trifluoromethyl)pyridin-2-yl)oxy)piperidin-1-yl)-6-oxo-5,6-dihydro-1,5-naphthyridine-2-carbonitrile]	1800 nM
C[C@@H]1CN(c2cc(=O)n(C)c3ccc(C#N)nc23)CC[C@@H]1Oc1ccc(C(F)(F)F)cn1 (single isomer, unassigned) [Example 226]	2400 nM
C[C@@H]1CN(c2cc(=O)n(C)c3ccc(C#N)nc23)CC[C@@H]1OCc1ccc(OC(F)(F)F)cc1 (racemic) [Example 235, (+/−) 5-methyl-8-(cis-3-methyl-4-((4-(trifluoromethoxy)benzyl)oxy)piperidin-1-yl)-6-oxo-5,6-dihydro-1,5-naphthyridine-2-carbonitrile]	5200 nM

Same assay, conditions: human whole blood IFN-γ; read-out: INFg Whole Blood

SMILES	EC50
CO[C@@H]1CN(c2cc(=O)n(C)c3ccc(C#N)nc23)CC[C@H]1Oc1cccc(C(F)(F)F)c1 (racemic) [Example 261, (±)-trans-8-(3-methoxy-4-(3-(trifluoromethyl)phenoxy)piperidin-1-yl)-5-methyl-6-oxo-5,6-dihydro-1,5-naphthyridine-2-carbonitrile]	910 nM
CO[C@H]1CN(c2cc(=O)n(C)c3ccc(C#N)nc23)CC[C@@H]1Oc1ccc(OC(C)C)cn1 (racemic) [Example 270, (±)-trans-8-(4-((5-isopropoxypyridin-2-yl)oxy)-3-methoxypiperidin-1-yl)-5-methyl-6-oxo-5,6-dihydro-1,5-naphthyridine-2-carbonitrile]	5400 nM
CC(C)c1ccnc(O[C@H]2CCN(c3cc(=O)n(C)c4ccc(C#N)nc34)C[C@H]2C)c1 (single isomer, unassigned) [Example 212]	1900 nM
CC(C)Oc1ccc(O[C@H]2CCN(c3cc(=O)n(C)c4ccc(C#N)nc34)C[C@@H]2O)nc1 (racemic) [Example 268, (±)-trans-8-(3-hydroxy-4-((5-isopropoxypyridin-2-yl)oxy)piperidin-1-yl)-5-methyl-6-oxo-5,6-dihydro-1,5-naphthyridine-2-carbonitrile]	13000 nM
CC(C)Oc1ccc(OC2CCN(c3cc(=O)n(C)c4ccc(C#N)nc34)CC2(C)C)nc1 (single isomer, unassigned) [Example 233, 8-(4-((5-isopropoxypyridin-2-yl)oxy)-3,3-dimethylpiperidin-1-yl)-5-methyl-6-oxo-5,6-dihydro-1,5-naphthyridine-2-carbonitrile (rel)]	3300 nM
C[C@@H]1CN(c2cc(=O)n(C)c3ccc(C#N)nc23)CC[C@@H]1Oc1ccc(C(F)(F)F)cc1 (single isomer, unassigned) [Example 188, 5-methyl-8-(cis-3-methyl-4-(4-(trifluoromethyl)phenoxy)piperidin-1-yl)-6-oxo-5,6-dihydro-1,5-naphthyridine-2-carbonitrile (rel)]	6400 nM
CO[C@H]1CN(c2cc(=O)n(C)c3ccc(C#N)nc23)CC[C@@H]1Oc1ccc(OC(C)C)cn1 (racemic) [Example 269, (±)-trans-8-(4-((5-isopropoxypyridin-2-yl)oxy)-3-methoxypiperidin-1-yl)-5-methyl-6-oxo-5,6-dihydro-1,5-naphthyridine-2-carbonitrile]	1600 nM
CO[C@@H]1CN(c2nc(=O)n(C)c3ccc(C#N)nc23)CC[C@H]1Oc1cccc(C(F)(F)F)c1 (racemic) [Example 276]	1000 nM
CC(C)c1ccnc(O[C@H]2CCN(c3cc(=O)n(C)c4ccc(C#N)nc34)C[C@H]2C)c1 (single isomer, unassigned) [Example 213]	4900 nM
CO[C@@H]1CN(c2nc(=O)n(C)c3ccc(C#N)nc23)CC[C@H]1Oc1cccc(C(F)(F)F)c1 (racemic) [Example 277]	4500 nM

Same assay, conditions: human whole blood, anti-CD3 plus anti-CD28, 24 hours; read-out: INFg Whole Blood Normalized Agonist EC50

SMILES	EC50
CC[C@@H]1CN(c2cc(=O)n(C)c3ccc(C#N)nc23)CC[C@H]1Oc1ccc(C(F)(F)F)cc1 (single isomer, unassigned) [Example 148]	12000 nM
C[C@@H]1CN(c2cc(=O)n(C)c3ccc(C#N)nc23)CC[C@H]1Oc1ccc(C(F)(F)F)cc1 (single isomer, unassigned) [Example 98]	1200 nM
CC[C@@H]1CN(c2cc(=O)n(C)c3ccc(C#N)nc23)CC[C@H]1Oc1cccc(C2CC2)c1 [Example 157, 8-((3R,4R)-4-(3-cyclopropylphenoxy)-3-ethylpiperidin-1-yl)-5-methyl-6-oxo-5,6-dihydro-1,5-naphthyridine-2-carbonitrile]	2800 nM
CC[C@@H]1CN(c2cc(=O)n(C)c3ccc(C#N)nc23)CC[C@H]1Oc1ccc(C(C)(C)C)cc1 (single isomer, unassigned) [Example 153]	1700 nM

Same assay, conditions: read-out: INFg Whole Blood; human whole blood IFN-γ

EC50	SMILES
8700 nM	CCO[C@@H]1CN(c2nc(=O)n(C)c3ccc(C#N)nc23)CC[C@H]1Oc1cccc(C(F)(F)F)c1 [Example 279, 4-((3R,4R)-3-ethoxy-4-(3-(trifluoromethyl)phenoxy)piperidin-1-yl)-1-methyl-2-oxo-1,2-dihydropyrido[3,2-d]pyrimidine-6-carbonitrile]
640 nM	CCO[C@@H]1CN(c2nc(=O)n(C)c3ccc(C#N)nc23)CC[C@H]1Oc1cccc(C(F)(F)F)c1 [Example 278, 4-((3R,4R)-3-ethoxy-4-(3-(trifluoromethyl)phenoxy)piperidin-1-yl)-1-methyl-2-oxo-1,2-dihydropyrido[3,2-d]pyrimidine-6-carbonitrile]
